Measured values as given in the NIST ThermoML archive (doi:10.1021/acs.jced.5b00654).
Values joined by “and” are separate entries in the source; they are usually repeats but may differ in a detail not shown here. Equal values may be shown once. ± gives the expanded uncertainty stated by the source.

Conditions: Fluid (supercritical or subcritical phases); for viscosity: Vibrating wire viscometry; for mass density: Buoyancy - hydrostatic balance with magnetic suspension - one sinker

`CCCC` [butane] gave a viscosity (348.15 K, 63.3 kPa) of 0.008591 ± 0.00084 mPa·s, a mass density (348.15 K, 337.86 kPa) of 7.2315 ± 0.025 kg/m3 and a viscosity (348.15 K, 337.86 kPa) of 0.008603 ± 0.00084 mPa·s. For the same compound, the mass density (348.15 K, 337.88 kPa) was 7.2315 ± 0.025 kg/m3, the viscosity (348.15 K, 337.88 kPa) was 0.008607 ± 0.00084 mPa·s and the mass density (348.15 K, 338.38 kPa) was 7.2445 ± 0.025 kg/m3. It also gave a viscosity (348.15 K, 338.38 kPa) of 0.008599 ± 0.00084 mPa·s, a mass density (348.15 K, 340.91 kPa) of 7.3031 ± 0.025 kg/m3 and a viscosity (348.15 K, 340.91 kPa) of 0.008599 ± 0.00084 mPa·s. For the same compound, the mass density (348.15 K, 454.98 kPa) was 9.9811 ± 0.029 kg/m3, the viscosity (348.15 K, 454.98 kPa) was 0.00861 ± 0.00084 mPa·s and the mass density (348.15 K, 455.21 kPa) was 9.9833 ± 0.029 kg/m3. The viscosity (348.15 K, 455.21 kPa) was 0.00861 ± 0.00084 mPa·s, the mass density (348.15 K, 516.69 kPa) was 11.497 ± 0.032 kg/m3 and the viscosity (348.15 K, 516.69 kPa) was 0.008615 ± 0.00084 mPa·s. It also gave a mass density (348.15 K, 516.76 kPa) of 11.497 ± 0.032 kg/m3, a viscosity (348.15 K, 516.76 kPa) of 0.008618 ± 0.00084 mPa·s and a mass density (373.13 K, 106.93 kPa) of 2.0348 ± 0.017 kg/m3. For the same compound, the viscosity (373.13 K, 106.93 kPa) was 0.009211 ± 0.00085 mPa·s, the mass density (373.13 K, 106.95 kPa) was 2.0363 ± 0.017 kg/m3 and the viscosity (373.13 K, 106.95 kPa) was 0.009213 ± 0.00085 mPa·s. The mass density (373.13 K, 106.98 kPa) was 2.037 ± 0.017 kg/m3, the viscosity (373.13 K, 106.98 kPa) was 0.00921 ± 0.00085 mPa·s and the mass density (373.13 K, 157.77 kPa) was 3.0215 ± 0.018 kg/m3. The viscosity (373.13 K, 157.77 kPa) was 0.009217 ± 0.00085 mPa·s, the mass density (373.13 K, 916.45 kPa) was 20.053 ± 0.05 kg/m3 and 20.052 ± 0.05 kg/m3 and the viscosity (373.13 K, 916.45 kPa) was 0.009329 ± 0.00085 mPa·s and 0.009334 ± 0.00085 mPa·s. The mass density (373.14 K, 57.69 kPa) was 1.0901 ± 0.015 kg/m3, the viscosity (373.14 K, 57.69 kPa) was 0.009211 ± 0.00085 mPa·s and the mass density (373.14 K, 57.72 kPa) was 1.0901 ± 0.015 kg/m3. For the same compound, the viscosity (373.14 K, 57.72 kPa) was 0.009214 ± 0.00085 mPa·s, the mass density (373.14 K, 57.76 kPa) was 1.0909 ± 0.015 kg/m3 and the viscosity (373.14 K, 57.76 kPa) was 0.009207 ± 0.00085 mPa·s. It also gave a mass density (373.14 K, 157.75 kPa) of 3.0215 ± 0.018 kg/m3, a viscosity (373.14 K, 157.75 kPa) of 0.00922 ± 0.00085 mPa·s and a mass density (373.14 K, 210.39 kPa) of 4.0609 ± 0.019 kg/m3. The viscosity (373.14 K, 210.39 kPa) was 0.009225 ± 0.00085 mPa·s, the mass density (373.14 K, 273.38 kPa) was 5.3326 ± 0.021 kg/m3 and the viscosity (373.14 K, 273.38 kPa) was 0.00923 ± 0.00085 mPa·s. The mass density (373.14 K, 274.72 kPa) was 5.3593 ± 0.021 kg/m3, the viscosity (373.14 K, 274.72 kPa) was 0.009227 ± 0.00085 mPa·s and the mass density (373.14 K, 493.67 kPa) was 9.9707 ± 0.029 kg/m3. For the same compound, the viscosity (373.14 K, 493.67 kPa) was 0.009255 ± 0.00085 mPa·s, the mass density (373.14 K, 493.81 kPa) was 9.9744 ± 0.029 kg/m3 and the viscosity (373.14 K, 493.81 kPa) was 0.009247 ± 0.00085 mPa·s. The mass density (373.14 K, 572.54 kPa) was 11.724 ± 0.032 kg/m3, the viscosity (373.14 K, 572.54 kPa) was 0.009263 ± 0.00085 mPa·s and the mass density (373.14 K, 572.6 kPa) was 11.728 ± 0.032 kg/m3. It also gave a viscosity (373.14 K, 572.6 kPa) of 0.009259 ± 0.00085 mPa·s, a mass density (373.14 K, 669.81 kPa) of 13.955 ± 0.036 kg/m3 and a viscosity (373.14 K, 669.81 kPa) of 0.00928 ± 0.00085 mPa·s. It also gave a mass density (373.14 K, 670 kPa) of 13.959 ± 0.037 kg/m3, a viscosity (373.14 K, 670 kPa) of 0.009283 ± 0.00085 mPa·s and a mass density (373.14 K, 751.04 kPa) of 15.893 ± 0.04 kg/m3. The viscosity (373.14 K, 751.04 kPa) was 0.009293 ± 0.00085 mPa·s, the mass density (373.14 K, 838.34 kPa) was 18.049 ± 0.044 kg/m3 and the viscosity (373.14 K, 838.34 kPa) was 0.009315 ± 0.00085 mPa·s. The mass density (373.14 K, 1095.4 kPa) was 24.953 ± 0.06 kg/m3, the viscosity (373.14 K, 1095.4 kPa) was 0.009394 ± 0.00085 mPa·s and the mass density (373.14 K, 1095.5 kPa) was 24.958 ± 0.06 kg/m3. It also gave a viscosity (373.14 K, 1095.5 kPa) of 0.00939 ± 0.00085 mPa·s, a viscosity (373.14 K, 1123 kPa) of 0.009464 ± 0.00085 mPa·s and a mass density (373.14 K, 1262.7 kPa) of 30.019 ± 0.075 kg/m3. It also gave a viscosity (373.14 K, 1262.7 kPa) of 0.009463 ± 0.00085 mPa·s, a mass density (373.14 K, 1263 kPa) of 30.031 ± 0.075 kg/m3 and a mass density (373.15 K, 210.37 kPa) of 4.0602 ± 0.019 kg/m3. For the same compound, the viscosity (373.15 K, 210.37 kPa) was 0.009228 ± 0.00085 mPa·s, the mass density (373.15 K, 344.33 kPa) was 6.7909 ± 0.024 kg/m3 and the viscosity (373.15 K, 344.33 kPa) was 0.00923 ± 0.00085 mPa·s. It also gave a mass density (373.15 K, 344.35 kPa) of 6.7909 ± 0.024 kg/m3 and a viscosity (373.15 K, 344.35 kPa) of 0.009234 ± 0.00085 mPa·s.
